According to US8178538B2, “Pyridazinones” (Hoffmann-La Roche Inc., priority 2008, dated 2012):
pIC50: −log10 of the molar value.

target: T1, PDE10A2 (Homo sapiens, UniProt Q9Y233); assay: PDE10A2 inhibition, Scintillation Proximity Assay (SPA); assay type: biochemical; details: catalytic domain of human PDE10A2 (S449-D789), 0.25 nM enzyme, 50 nM cGMP + 50 nM [3H]-cGMP, 30 minutes at room temperature
T1 construct: residues serine 449 to aspartate 789; His6 (H6) with thrombin cleavage site (N, cleaved yes); made in house; host or cells: E. coli BL21(DE3) pLysS
Experimental: The following tests were carried out in order to determine the activity of the compounds of the present invention. PDE10 activity of the compounds of the present invention is determined using a Scintillation Proximity Assay (SPA)-based method similar to the one previously described (Fawcett, L. et al., Proc Natl Acad Sci USA (2000) 97(7):3702-3707).
PDE10A1 and PDE10A2 are two splice variants of PDE10A. There are these 2 splice variants known, which differ in the N-terminal part of the protein. The catalytic domains of PDE10A1 and PDE10A2 are identical. The assay for PDE10A2 described below is therefore also representative for PDE10A1 and also for PDE10A in general.
The PDE10A2 assay was performed in a two step procedure in 96-well micro titer plates. The reaction mixture of 80 μl contained 20 mM HEPES/10 mM MgCl2/[…] (pH 7.5), 50 nM cGMP (Sigma) and 50 nM [^3H]-cGMP (GE Healthcare), 0.25 nM PDE10A2 with or without a specific test compound. A range of concentrations of the potential inhibitor was used to generate data for calculating the concentration of inhibitor resulting in 50% of the effect (e.g. IC50, the concentration of the competitor inhibiting PDE10A2 activity 50%). Non-specific activity was tested without the enzyme. The reaction was initiated by addition of the substrate solution (cGMP and [^3H]-cGMP) and allowed to progress for 30 minutes at room temperature. The reaction was terminated by transferring 50 μl of the reaction mixture into an OptiPlate (Perkin Elmer) containing 25 μl of YSi-SPA scintillation beads (GE Healthcare) in 18 mM zinc sulphate solution (stop reagent). After 1 h under shaking, the plate was centrifuged one minute at 1000 rpm to allow beads to settle. Afterwards, radioactive counts were measured on a Perkin Elmer TopCount Scintillation plate reader.
The catalytic domain of human PDE10A2, residues serine 449 to aspartate 789, was amplified by PCR using cDNA (Origene) and the oligonucleotides 5′-GGGGACAAGTTT […]-3′ (SEQ ID NO. 1) (with AttB1 recombination site in bold and thrombin protease cleavage site in italics) and 5′-[…] GCTG-3′ (SEQ ID NO. 2) (with AttB2 recombination site in bold) which conferred Gateway recombination sites. The PCR product was used in a BP recombination reaction with pDONR221 to generate pENTR Thm-PDE10A2(S449-D789) which was DNA sequence verified and then used in an LR recombination reaction with a Gateway modified version of pET11a. The resulting expression vector, placT7.2H6-(gw1)-Thm-PDE10A2(S449-D789) was DNA sequence confirmed and transformed into E. coli strain BL21(DE3) pLysS and recombinant protein was produced in TB medium at 20° C. by induction to a final IPTG concentration of 0.5 mM at an optical density of 1.0 at 600 nm for 20 hours. About 30% of the protein was in the soluble fraction of the cell homogenate. The protein was purified using sequential chromatography on Ni-NTA and HiTrapQ/HiTrapS. After thrombin digest at room temperature a HiTrapChelating/HiTrap Benzamindin chromatography removed impurities, uncleaved protein and thrombin. Final purification of PDE10A2(S449-D789) was performed on a Superdex 75 size exclusion chromatography equilibrated with 25 mM HEPES pH 8.4, 0.15 M NaCl. The yield of pure protein was 2 mg/liter of culture volume is relatively low. The purity of the protein was >95%, monomeric and monodisperse as shown by SDS-PAGE, HPLC and analytical ultracentrifugation.

T1 sequence (Q9Y233 715-1055): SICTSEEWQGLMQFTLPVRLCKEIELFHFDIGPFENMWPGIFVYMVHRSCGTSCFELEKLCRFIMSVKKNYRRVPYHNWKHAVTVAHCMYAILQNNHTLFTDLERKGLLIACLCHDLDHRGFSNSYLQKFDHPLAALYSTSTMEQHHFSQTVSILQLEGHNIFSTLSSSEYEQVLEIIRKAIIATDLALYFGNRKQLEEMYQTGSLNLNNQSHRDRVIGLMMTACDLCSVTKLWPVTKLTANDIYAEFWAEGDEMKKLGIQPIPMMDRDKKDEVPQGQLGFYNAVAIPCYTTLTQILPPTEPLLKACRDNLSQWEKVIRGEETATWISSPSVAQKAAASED

**Q.** `CS(=O)(=O)c1ccc(-n2ccc(=O)c(-c3ccnn3-c3cccc4cnccc34)n2)cc1` [Example 192, 3-(2-Isoquinolin-5-yl-2H-pyrazol-3-yl)-1-(4-methanesulfonyl-phenyl)-1H-pyridazin-4-one] was tested. Which pIC50 did it give?
**A.** The pIC50 was 7.89.

**Q.** With `CCOc1cc(-n2nccc2-c2nn(-c3ccc(OC(F)(F)F)cc3)ccc2=O)ccn1` [Example 200, 3-[2-(2-Ethoxy-pyridin-4-yl)-2H-pyrazol-3-yl]-1-(4-trifluoromethoxy-phenyl)-1H-pyridazin-4-one] as the molecule, how does the pIC50 read?
**A.** Its pIC50 is 7.34.

**Q.** `O=c1ccn(-c2cccc(OC(F)(F)F)c2)nc1-c1ccnn1-c1cccc2ncccc12` [Example 203, 3-(2-Quinolin-5-yl-2H-pyrazol-3-yl)-1-(3-trifluoromethoxy-phenyl)-1H-pyridazin-4-one] was tested. Which pIC50 did it give?
**A.** Its pIC50 is 7.89.

**Q.** How did the pIC50 turn out when `O=c1ccn(-c2cccc(OC(F)F)c2)nc1-c1ccnn1-c1cccc(Cl)c1` [Example 206, 3-[2-(3-Chloro-phenyl)-2H-pyrazol-3-yl]-1-(3-difluoromethoxy-phenyl)-1H-pyridazin-4-one] was run?
**A.** The pIC50 was 7.77.

**Q.** `N#Cc1cccc(-n2ccc(=O)c(-c3ccnn3-c3ccnc4ccccc34)n2)c1` [Example 207, 3-[4-Oxo-3-(2-quinolin-4-yl-2H-pyrazol-3-yl)-4H-pyridazin-1-yl]-benzonitrile] was tested. Which pIC50 did it give?
**A.** The pIC50 was 8.30.

**Q.** `Cc1ccccc1-n1nccc1-c1nn(-c2ccc(C(F)(F)F)cc2)ccc1=O` [Example 216, 3-(2-o-Tolyl-2H-pyrazol-3-yl)-1-(4-trifluoromethyl-phenyl)-1H-pyridazin-4-one] was tested. Which pIC50 did it give?
**A.** Its pIC50 is 7.70.

**Q.** `O=c1ccn(-c2ccc(OC(F)(F)F)cc2)nc1-c1ccnn1-c1ccnc2ccc(Cl)cc12` [Example 224, 3-[2-(6-Chloro-quinolin-4-yl)-2H-pyrazol-3-yl]-1-(4-trifluoromethoxy-phenyl)-1H-pyridazin-4-one] was tested. Which pIC50 did it give?
**A.** Its pIC50 is 7.66.

**Q.** `O=c1ccn(-c2ccc(S(=O)(=O)C(F)(F)F)cc2)nc1-c1ccnn1-c1ccccc1F` [Example 232, 3-[2-(2-Fluoro-phenyl)-2H-pyrazol-3-yl]-1-(4-trifluoromethanesulfonyl-phenyl)-1H-pyridazin-4-one] was tested. Which pIC50 did it give?
**A.** The pIC50 was 7.92.

**Q.** With `O=c1ccn(-c2ccc(C(F)(F)F)cc2)nc1-c1ccnn1-c1ccc(Cl)c2ccccc12` [Example 237, 3-[2-(4-Chloro-naphthalen-1-yl)-2H-pyrazol-3-yl]-1-(4-trifluoromethyl-phenyl)-1H-pyridazin-4-one] as the molecule, how does the pIC50 read?
**A.** Its pIC50 is 7.00.

**Q.** `O=c1ccn(-c2cccc(Cl)c2)nc1-c1ccnn1-c1ccc(Cl)c2ccccc12` [Example 244, 3-[2-(4-Chloro-naphthalen-1-yl)-2H-pyrazol-3-yl]-1-(3-chloro-phenyl)-1H-pyridazin-4-one] was tested. Which pIC50 did it give?
**A.** Its pIC50 is 7.34.

**Q.** `O=c1ccn(-c2ccc(OCC(F)(F)F)cc2)nc1-c1ccnn1-c1ccccc1F` [Example 255, 3-[2-(2-Fluoro-phenyl)-2H-pyrazol-3-yl]-1-[4-(2,2,2-trifluoro-ethoxy)-phenyl]-1H-pyridazin-4-one] was tested. Which pIC50 did it give?
**A.** The pIC50 was 8.30.

**Q.** With `O=c1ccn(-c2ccc(OCC(F)(F)F)cc2)nc1-c1ccnn1-c1cccc(Cl)c1` [Example 257, 3-[2-(3-Chloro-phenyl)-2H-pyrazol-3-yl]-1-[4-(2,2,2-trifluoro-ethoxy)-phenyl]-1H-pyridazin-4-one] as the molecule, how does the pIC50 read?
**A.** Its pIC50 is 8.52.

**Q.** With `O=c1ccn(-c2ccc(OCC(F)(F)F)cc2)nc1-c1ccnn1-c1ccnc2ccccc12` [Example 259, 3-(2-Quinolin-4-yl-2H-pyrazol-3-yl)-1-[4-(2,2,2-trifluoro-ethoxy)-phenyl]-1H-pyridazin-4-one] as the molecule, how does the pIC50 read?
**A.** The pIC50 was 9.00.

**Q.** How did the pIC50 turn out when `O=c1ccn(-c2cccc(S(=O)(=O)N3CCCCC3)c2)nc1-c1ccnn1-c1ccnc2ccc(Cl)cc12` [Example 267, 3-[2-(6-Chloro-quinolin-4-yl)-2H-pyrazol-3-yl]-1-[3-(piperidine-1-sulfonyl)-phenyl]-1H-pyridazin-4-one] was run?
**A.** The pIC50 was 7.40.

**Q.** With `O=c1ccn(-c2cccc(O)c2)nc1-c1ccnn1-c1ccc2c(c1)OCCO2` [Example 277, 3-[2-(2,3-Dihydro-benzo[1,4]dioxin-6-yl)-2H-pyrazol-3-yl]-1-(3-hydroxy-phenyl)-1H-pyridazin-4-one] as the molecule, how does the pIC50 read?
**A.** Its pIC50 is 8.40.

**Q.** With `O=c1ccn(-c2cccc(S(=O)(=O)C(F)(F)F)c2)nc1-c1ccnn1-c1ccccc1` [Example 281, 3-(2-Phenyl-2H-pyrazol-3-yl)-1-(3-trifluoromethanesulfonyl-phenyl)-1H-pyridazin-4-one] as the molecule, how does the pIC50 read?
**A.** The pIC50 was 7.77.

**Q.** How did the pIC50 turn out when `N#Cc1cccc(-n2nccc2-c2nn(-c3cccc(S(=O)(=O)C(F)(F)F)c3)ccc2=O)c1` [Example 284, 3-{5-[4-Oxo-1-(3-trifluoromethanesulfonyl-phenyl)-1,4-dihydro-pyridazin-3-yl]-pyrazol-1-yl}-benzonitrile] was run?
**A.** The pIC50 was 7.96.

**Q.** `N#Cc1cccc(-n2ccc(=O)c(-c3ccnn3-c3cccc(Cl)c3)n2)c1` [Example 287, 3-{3-[2-(3-Chloro-phenyl)-2H-pyrazol-3-yl]-4-oxo-4H-pyridazin-1-yl}-benzonitrile] was tested. Which pIC50 did it give?
**A.** Its pIC50 is 7.82.

**Q.** With `CC(=O)Nc1cccc(-n2ccc(=O)c(-c3ccnn3-c3ccccc3F)n2)c1` [Example 292, N-(3-{3-[2-(2-Fluoro-phenyl)-2H-pyrazol-3-yl]-4-oxo-4H-pyridazin-1-yl}-phenyl)-acetamide] as the molecule, how does the pIC50 read?
**A.** The pIC50 was 7.68.

**Q.** How did the pIC50 turn out when `CNC(=O)c1cccc(-n2ccc(=O)c(-c3ccnn3-c3ccccc3F)n2)c1` [Example 293, 3-{3-[2-(2-Fluoro-phenyl)-2H-pyrazol-3-yl]-4-oxo-4H-pyridazin-1-yl}-N-methyl-benzamide] was run?
**A.** The pIC50 was 7.42.

**Q.** `CC(=O)N(C)c1cccc(-n2ccc(=O)c(-c3ccnn3-c3ccccc3F)n2)c1` [Example 294, N-(3-{3-[2-(2-Fluoro-phenyl)-2H-pyrazol-3-yl]-4-oxo-4H-pyridazin-1-yl}-phenyl)-N-methyl-acetamide] was tested. Which pIC50 did it give?
**A.** The pIC50 was 8.22.

**Q.** With `O=C(OCCF)c1cccc(-n2ccc(=O)c(-c3ccnn3-c3cccc4ccccc34)n2)c1` [Example 295, 3-[3-(2-Naphthalen-1-yl-2H-pyrazol-3-yl)-4-oxo-4H-pyridazin-1-yl]-benzoic acid 2-fluoro-ethyl ester] as the molecule, how does the pIC50 read?
**A.** The pIC50 was 8.70.

**Q.** How did the pIC50 turn out when `CC(O)c1cccc(-n2ccc(=O)c(-c3ccnn3-c3ccccc3F)n2)c1` (centres unmarked) [Example 298, 3-[2-(2-Fluoro-phenyl)-2H-pyrazol-3-yl]-1-[3-(1-hydroxy-ethyl)-phenyl]-1H-pyridazin-4-one] was run?
**A.** Its pIC50 is 7.59.
